Literature values in patent publication US20230398128A1, “PREFERRED ORAL TESTOSTERONE UNDECANOATE THERAPY TO ACHIEVE TESTOSTERONE REPLACEMENT TREATMENT” (Marius Pharmaceuticals LLC, priority 2021, published 2023).

Conditions: for increase in ambulatory SBP: previous testosterone studies

## CCCCCCC(=O)O[C@H]1CC[C@H]2[C@@H]3CCC4=CC(=O)CC[C@]4(C)[C@H]3CC[C@]12C [testosterone enanthate]
  increase in ambulatory SBP: 3.7 mmHg

## CCCCCCCCCCC(=O)O[C@H]1CC[C@H]2[C@@H]3CCC4=CC(=O)CC[C@]4(C)[C@H]3CC[C@]12C [testosterone undecanoate (oral), testosterone undecanoate]
  increase in ambulatory SBP: 4.9 mmHg
Previously reported study, subjects receiving antihypertensive medication
  increase in ambulatory systolic BP: 5.5 mmHg
